# Results reported in paper PMC8427973, “Regulation of the HTRA2 Protease Activity by an Inhibitory Antibody-Derived Peptide Ligand and the Influence on HTRA2-Specific Protein Interaction Networks in Retinal Tissues” (Biomedicines, 2021).
# Experiments:
# [1] = test system: recombinant 6xHis-tag HTRA2 and its protein interaction partners in homogenized porcine retina; assay: Co-immunoprecipitation (Co-IP) of HTRA2 protein interaction partners, quantitative LC-MS/MS (iBAQ, volcano plot vs CTRL beads); design: species or system house swine (Sus scrofa); details: 2 µg HTRA2 + 10 µg compound, n = 3, vs CTRL beads
# Method: The retina extraction and homogenization were performed as already described in previous publications. The use of animal by-products of house swine for scientific research purposes was approved by the Kreisverwaltung Mainz-Bingen in Germany (Identification Code: DE 07 315 0006 21, approved on 13 January 2014). In brief, retinal tissues were extracted from freshly removed porcine eye bulbs (house swine, Sus scrofa domestica Linnaeus, n = 30) provided by the local slaughterhouses (Landmetzgerei Harth, Stadecken-Elsheim, Germany). Afterwards, the retinal tissues were homogenized in 2 mL screw cap microtubes filled with 1.4/2.8 mm ceramic beads and 1 mL Tissue Protein Extraction Reagent (T-PER, Thermo Fisher Scientific, Rockford, IL, USA) using a Percellys® 24 homogenizer (VWR International GmbH, Darmstadt, Germany). The homogenized retinal samples were then centrifuged at 14,000× g for 15 min at 4 °C. The protein-containing supernatant was exchanged in a 100 µL phosphate-buffered saline (PBS) using a 3 kDa Amicon® filtration unit (Millipore, Billerica, MA, USA) and, prior to this, was extensively washed in order to completely remove traces of the T-PER buffer. Afterwards, the samples were pooled and the protein concentration was determined using a Pierce Bicinchoninic Acid (BCA) Protein Assay Kit (Thermo Fisher Scientific, Rockford, IL, USA) according to the manufacturer’s protocol, which provided 5 mg aliquots for further analysis.
# The recombinant protein HTRA2 with a C-terminal 6xHis-tag motif (Novoprotein Scientific INC., Summit, NJ, USA) and 40 μL HisPurTM Ni-NTA magnetic beads (Thermo Fisher Scientific, Rockford, IL, USA) were spiked into 5 mg homogenized porcine retina. The experiment comprised of four groups: control homogenate (CTRL group), homogenate with 2 μg recombinant HTRA2 (HTRA2 group), homogenate with 2 μg recombinant HTRA2 and 10 μg UCF-101 (UCF-101 group), and homogenate with 2 μg recombinant HTRA2 and 10 μg synthetic CDR peptide (CDR group). The Co-IP of the recombinant HTRA2 and the enrichment of the respective interaction partners was performed with three independent biological replicates for each group (CTRL, HTRA2, UCF-101, and CDR group). After incubation at 4 °C overnight, the 6xHis-tagged protein HTRA2 with the bounded protein interaction partners (co-immunoprecipitation) was isolated with the previously added HisPurTM Ni-NTA magnetic beads (Thermo Fisher Scientific, Rockford, IL, USA) using a magnetic stand. Each bead group was washed twice with 400 μL PBS and the bounded HTRA2 including the protein interaction partners were eluted by pH shift. The protein concentration of each eluate fraction was determined as described above. Afterwards, 50 μg of each eluate fraction was evaporated using a speed vacuum concentrator (SpeedVac) (Eppendorf, Hamburg, Germany) for 45 min at 30 °C and was stored afterwards at −20 °C.
# The protein eluate fractions of each group (50 μg; n = 3 biological replicates per group) were separated by 1D SDS PAGE on 10-well NuPAGE® 12% Bis-Tris gels using NuPAGE™ MOPS SDS Running Buffer 20X (Thermo Fisher Scientific, Rockford, IL, USA). The 1D SDS PAGE was performed with the XCell SureLock^TM Mini-Cell Electrophoresis System (Thermo Fisher Scientific, Rockford, IL, USA) under denatured and reduced conditions, as already described in previous publications. The protein separation was performed for 2 h at 4 °C using 150 V, and then the gels were stained with the Novex Colloidal Blue Staining Kit (Thermo Fisher Scientific, Rockford, IL, USA) according to the manufacturer’s protocol. The next day, the gels were destained overnight and scanned using a DGP-9042 scanner (Brother Industries, Nagoya, Japan) at 600 dpi. In-gel trypsin digestion was performed as already described in previous publications. In brief, each protein lane was divided into 17 slices and was subsequently cut into small pieces. […]
# HTRA2 = details: immunoprecipitation experiments; cited from earlier work
# Source text: The mitochondrial serine protease HTRA2 has many versatile biological functions ranging from being an important regulator of apoptosis to being an essential component for neuronal cell survival and mitochondrial homeostasis. Loss of HTRA2 protease function is known to cause neurodegeneration, whereas overactivation of its proteolytic function is associated with cell death and inflammation.
# [2] = test system: retinal ganglion cells (RGCs); details: cited from earlier work
# Source text: However, in a recent study of our group we identified the protein HTRA2 as a high-affinity interaction partner of the synthetic peptide […] [16]. Thereby, this synthetic peptide encodes a complementary-determining region 1 (CDR1) of polyclonal antibody molecules, which was originally identified as a potential biomarker candidate in primary-open angle glaucoma (POAG) patients.
sequence,measurement,setting,value
"ASGYTFTNYGLSWVR [CDR, synthetic peptide encoding a complementary-determining region 1 (CDR1) of polyclonal antibody molecules]",FGF2 (Fibroblast growth factor 2) as significant interaction partner of HTRA2,[1]; HTRA2 alone: -,√ (Proteins fulfilled filtering criteria (p < 0.01; log2 fold change > 1.5))
same,FTH1 (Ferritin heavy chain) as significant interaction partner of HTRA2,[1]; HTRA2 alone: -,√ (Proteins fulfilled filtering criteria (p < 0.01; log2 fold change > 1.5))
same,GTF2F2 (General transcription factor IIF subunit 2) as significant interaction partner of HTRA2,[1]; HTRA2 alone: -,- (Proteins failed to fulfill the filtering criteria (p > 0.01; log2 fold change < 1.5))
same,NAPG (Gamma-soluble NSF attachment protein) as significant interaction partner of HTRA2,[1]; HTRA2 alone: -,√ (Proteins fulfilled filtering criteria (p < 0.01; log2 fold change > 1.5))
same,PDZD11 (PDZ domain-containing protein 11) as significant interaction partner of HTRA2,[1]; HTRA2 alone: -,√ (Proteins fulfilled filtering criteria (p < 0.01; log2 fold change > 1.5))
same,PGRMC1 (Membrane-associated progesterone receptor component 1) as significant interaction partner of HTRA2,[1]; HTRA2 alone: -,- (Proteins failed to fulfill the filtering criteria (p > 0.01; log2 fold change < 1.5))
same,PLRG1 (Pleiotropic regulator 1) as significant interaction partner of HTRA2,[1]; HTRA2 alone: -,√ (Proteins fulfilled filtering criteria (p < 0.01; log2 fold change > 1.5))
same,"POLR2E (DNA-directed RNA polymerases I, II, and III subunit RPABC1) as significant interaction partner of HTRA2",[1]; HTRA2 alone: -,√ (Proteins fulfilled filtering criteria (p < 0.01; log2 fold change > 1.5))
same,PPA1 (Inorganic pyrophosphatase) as significant interaction partner of HTRA2,[1]; HTRA2 alone: -,- (Proteins failed to fulfill the filtering criteria (p > 0.01; log2 fold change < 1.5))
same,SFRP1 (Secreted frizzled-related protein 1) as significant interaction partner of HTRA2,[1]; HTRA2 alone: -,√ (Proteins fulfilled filtering criteria (p < 0.01; log2 fold change > 1.5))
same,TUBA1C (Tubulin alpha-1C chain) as significant interaction partner of HTRA2,[1]; HTRA2 alone: -,√ (Proteins fulfilled filtering criteria (p < 0.01; log2 fold change > 1.5))
same,UBE2N (Ubiquitin-conjugating enzyme E2 N) as significant interaction partner of HTRA2,[1]; HTRA2 alone: -,√ (Proteins fulfilled filtering criteria (p < 0.01; log2 fold change > 1.5))
same,CDC42 (Cell division control protein 42 homolog) as significant interaction partner of HTRA2,[1]; HTRA2 alone: n.d.,√ (Proteins fulfilled filtering criteria (p < 0.01; log2 fold change > 1.5))
same,COPE (Coatomer subunit epsilon) as significant interaction partner of HTRA2,[1]; HTRA2 alone: n.d.,- (Proteins failed to fulfill the filtering criteria (p > 0.01; log2 fold change < 1.5))
same,"MRPL2 (39S ribosomal protein L2, mitochondrial) as significant interaction partner of HTRA2",[1]; HTRA2 alone: n.d.,√ (Proteins fulfilled filtering criteria (p < 0.01; log2 fold change > 1.5))
same,SNX3 (Sorting nexin-3) as significant interaction partner of HTRA2,[1]; HTRA2 alone: n.d.,√ (Proteins fulfilled filtering criteria (p < 0.01; log2 fold change > 1.5))
same,SOWAHA (Ankyrin repeat domain-containing protein SOWAHA) as significant interaction partner of HTRA2,[1]; HTRA2 alone: n.d.,√ (Proteins fulfilled filtering criteria (p < 0.01; log2 fold change > 1.5))
same,TIMM13 (Mitochondrial import inner membrane translocase subunit Tim13) as significant interaction partner of HTRA2,[1]; HTRA2 alone: n.d.,√ (Proteins fulfilled filtering criteria (p < 0.01; log2 fold change > 1.5))
same,TUBB8 (Tubulin beta-8 chain) as significant interaction partner of HTRA2,[1]; HTRA2 alone: n.d.,√ (Proteins fulfilled filtering criteria (p < 0.01; log2 fold change > 1.5))
same,"AGPS (Alkyldihydroxyacetonephosphate synthase, peroxisomal) as significant interaction partner of HTRA2",[1]; HTRA2 alone: √,√ (Proteins fulfilled filtering criteria (p < 0.01; log2 fold change > 1.5))
same,ANK2 (Ankyrin-2) as significant interaction partner of HTRA2,[1]; HTRA2 alone: √,- (Proteins failed to fulfill the filtering criteria (p > 0.01; log2 fold change < 1.5))
same,AP2A1 (AP-2 complex subunit alpha-1) as significant interaction partner of HTRA2,[1]; HTRA2 alone: √,- (Proteins failed to fulfill the filtering criteria (p > 0.01; log2 fold change < 1.5))
same,AP3D1 (AP-3 complex subunit delta-1) as significant interaction partner of HTRA2,[1]; HTRA2 alone: √,- (Proteins failed to fulfill the filtering criteria (p > 0.01; log2 fold change < 1.5))
same,"AUH (Methylglutaconyl-CoA hydratase, mitochondrial) as significant interaction partner of HTRA2",[1]; HTRA2 alone: √,√ (Proteins fulfilled filtering criteria (p < 0.01; log2 fold change > 1.5))
same,"CS (Citrate synthase, mitochondrial) as significant interaction partner of HTRA2",[1]; HTRA2 alone: √,- (Proteins failed to fulfill the filtering criteria (p > 0.01; log2 fold change < 1.5))
same,CSTB (Cystatin-B) as significant interaction partner of HTRA2,[1]; HTRA2 alone: √,√ (Proteins fulfilled filtering criteria (p < 0.01; log2 fold change > 1.5))
same,"DNAJA3 (DnaJ homolog subfamily A member 3, mitochondrial) as significant interaction partner of HTRA2",[1]; HTRA2 alone: √,- (Proteins failed to fulfill the filtering criteria (p > 0.01; log2 fold change < 1.5))
same,DTD1 (D-aminoacyl-tRNA deacylase 1) as significant interaction partner of HTRA2,[1]; HTRA2 alone: √,- (Proteins failed to fulfill the filtering criteria (p > 0.01; log2 fold change < 1.5))
same,EIF2S3 (Eukaryotic translation initiation factor 2 subunit 3) as significant interaction partner of HTRA2,[1]; HTRA2 alone: √,- (Proteins failed to fulfill the filtering criteria (p > 0.01; log2 fold change < 1.5))
same,FAM30A (Putative uncharacterized protein FAM30A) as significant interaction partner of HTRA2,[1]; HTRA2 alone: √,- (Proteins failed to fulfill the filtering criteria (p > 0.01; log2 fold change < 1.5))
same,FLNA (Filamin-A) as significant interaction partner of HTRA2,[1]; HTRA2 alone: √,- (Proteins failed to fulfill the filtering criteria (p > 0.01; log2 fold change < 1.5))
same,GDI1 (Rab GDP dissociation inhibitor alpha) as significant interaction partner of HTRA2,[1]; HTRA2 alone: √,√ (Proteins fulfilled filtering criteria (p < 0.01; log2 fold change > 1.5))
same,GLO1 (Lactoylglutathione lyase) as significant interaction partner of HTRA2,[1]; HTRA2 alone: √,√ (Proteins fulfilled filtering criteria (p < 0.01; log2 fold change > 1.5))
same,GNL1 (Guanine nucleotide-binding protein-like 1) as significant interaction partner of HTRA2,[1]; HTRA2 alone: √,- (Proteins failed to fulfill the filtering criteria (p > 0.01; log2 fold change < 1.5))
same,"HAGH (Hydroxyacylglutathione hydrolase, mitochondrial) as significant interaction partner of HTRA2",[1]; HTRA2 alone: √,- (Proteins failed to fulfill the filtering criteria (p > 0.01; log2 fold change < 1.5))
same,"HTRA2 (Serine protease HTRA2, mitochondrial; target protein) enriched",[1]; HTRA2 alone: √,√ (Proteins fulfilled filtering criteria (p < 0.01; log2 fold change > 1.5))
same,HYOU1 (Hypoxia up-regulated protein 1) as significant interaction partner of HTRA2,[1]; HTRA2 alone: √,- (Proteins failed to fulfill the filtering criteria (p > 0.01; log2 fold change < 1.5))
same,MCTS1 (Malignant T-cell-amplified sequence 1) as significant interaction partner of HTRA2,[1]; HTRA2 alone: √,√ (Proteins fulfilled filtering criteria (p < 0.01; log2 fold change > 1.5))
same,"ME2 (NAD-dependent malic enzyme, mitochondrial) as significant interaction partner of HTRA2",[1]; HTRA2 alone: √,- (Proteins failed to fulfill the filtering criteria (p > 0.01; log2 fold change < 1.5))
same,NCKAP1 (Nck-associated protein 1) as significant interaction partner of HTRA2,[1]; HTRA2 alone: √,- (Proteins failed to fulfill the filtering criteria (p > 0.01; log2 fold change < 1.5))
same,PACS1 (Phosphofurin acidic cluster sorting protein 1) as significant interaction partner of HTRA2,[1]; HTRA2 alone: √,- (Proteins failed to fulfill the filtering criteria (p > 0.01; log2 fold change < 1.5))
same,POTEE (POTE ankyrin domain family member E) as significant interaction partner of HTRA2,[1]; HTRA2 alone: √,- (Proteins failed to fulfill the filtering criteria (p > 0.01; log2 fold change < 1.5))
same,PSMC1 (26S proteasome regulatory subunit 4) as significant interaction partner of HTRA2,[1]; HTRA2 alone: √,- (Proteins failed to fulfill the filtering criteria (p > 0.01; log2 fold change < 1.5))
same,PTGES3 (Prostaglandin E synthase 3) as significant interaction partner of HTRA2,[1]; HTRA2 alone: √,√ (Proteins fulfilled filtering criteria (p < 0.01; log2 fold change > 1.5))
same,RPS12 (40S ribosomal protein S12) as significant interaction partner of HTRA2,[1]; HTRA2 alone: √,- (Proteins failed to fulfill the filtering criteria (p > 0.01; log2 fold change < 1.5))
same,"SPTBN1 (Spectrin beta chain, non-erythrocytic 1) as significant interaction partner of HTRA2",[1]; HTRA2 alone: √,- (Proteins failed to fulfill the filtering criteria (p > 0.01; log2 fold change < 1.5))
same,UBE2V1 (Ubiquitin-conjugating enzyme E2 variant 1) as significant interaction partner of HTRA2,[1]; HTRA2 alone: √,√ (Proteins fulfilled filtering criteria (p < 0.01; log2 fold change > 1.5))
same,Affinity for the target protein HTRA2,HTRA2,high affinity
same,Effect on retinal ganglion cells (RGCs) in an organ culture model for glaucoma,[2],neuroprotective effects
